According to article PMC7948413 (The Journal of Biological Chemistry, 2021):

Molecular target: T1, cytosolic phosphoenolpyruvate carboxykinase (PCK1) (Rattus norvegicus, UniProt P07379)
T1 sequence (P07379 1-622): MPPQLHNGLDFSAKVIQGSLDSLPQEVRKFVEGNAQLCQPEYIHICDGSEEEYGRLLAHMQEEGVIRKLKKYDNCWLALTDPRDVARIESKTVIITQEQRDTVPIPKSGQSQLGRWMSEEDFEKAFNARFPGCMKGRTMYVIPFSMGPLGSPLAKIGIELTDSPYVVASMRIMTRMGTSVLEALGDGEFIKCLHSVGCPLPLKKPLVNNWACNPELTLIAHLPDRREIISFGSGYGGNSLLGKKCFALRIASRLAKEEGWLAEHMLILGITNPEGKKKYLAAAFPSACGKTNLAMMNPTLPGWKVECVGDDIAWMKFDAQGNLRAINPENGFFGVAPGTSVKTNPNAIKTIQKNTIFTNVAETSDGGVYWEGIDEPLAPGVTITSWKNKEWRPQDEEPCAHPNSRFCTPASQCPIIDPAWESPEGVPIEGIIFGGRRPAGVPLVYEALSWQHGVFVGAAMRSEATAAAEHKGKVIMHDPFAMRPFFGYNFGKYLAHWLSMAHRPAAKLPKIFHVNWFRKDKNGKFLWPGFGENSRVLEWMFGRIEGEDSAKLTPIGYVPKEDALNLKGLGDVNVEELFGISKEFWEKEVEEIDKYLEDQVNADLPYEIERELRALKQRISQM
Test: STD NMR and DEEP-STD NMR
Assay type: binding

CC(C)(COP(=O)(O)OP(=O)(O)OC[C@H]1O[C@@H](n2cnc3c(N)ncnc32)[C@H](O)[C@@H]1OP(=O)(O)O)[C@@H](O)C(=O)NCCC(=O)NCCS [coenzyme A]
STD NMR and DEEP-STD NMR: STD NMR experiments showed clear STD signals for both, acetyl-CoA and CoA (see Fig. S4), confirming that they bind to PCK1
